Laboratory results as given in patent US20220395500A1, “SMALL MOLECULE ACTIVATORS OF INTERFERON REGULATORY FACTOR 3 AND METHODS OF USE THEREOF” (Neuralexo, Inc., priority 2020, published 2022).

Legend:
[1] = THP1-Dual cytotoxicity (Cell Titer Glo, ATP); format: cell-based, human; settings: human, THP1-Dual cells, read-out: Thp1 cytotox CC50
From the text: FIG. 9C is a CC50 (50% cytotoxic concentration) graph of AV-C dependent IRF activation in THP1-Dual cells, determined with an 8-point dose response experiment. Cell viability was monitored based on quantitation of ATP present, as an indicator of metabolically active cells, where luminescence is proportional to the amount of ATP present, using Cell-Titer Glo (Promega).
The OTRADI Small Molecule Library of approximately 246,000 diverse compounds (see below for description) was screened using the THP1-Dual based HTS platform described above. All transfer steps in the screen are fully automated, thus reducing variability. Primary screening included a single data point or dose for each molecule. After data normalization was applied for each assay run, “hit” selection was performed on the plates that pass the quality control (QC) criterion. Hits were defined as samples having values above the activity cutoff determined based on noise level of the assay to reduce false positive rates. In the pilot study discussed above this activity value was >3σ above the ISRE mean with the added criteria of NFκB activation being lower than […] from the mean to identify IRF selective compounds. The ratio of ISRE:NFκB activity was also calculated as a selectivity index for prioritizing hit selection. Primary hits underwent secondary screening to determine the 50% effective concentration (EC50) and 50% cytotoxic concentration (CC50) of these agents using an 8-point dose-response curve in the human THP1-Dual cells. Cytotoxicity was measured in the plate using Cell Titer Glo (Promega). Identified candidate compounds were further screened (orthogonal screen) for cross species activity in the validated mouse J774-Dual assay using an 8-point dose-response format to determine EC50 and CC50 values as well as ISRE:NFκB ratios. A general process flow for the experimental design laid out above is depicted at FIG. 12.

J774-Dual cytotoxicity = format: cell-based, mouse; settings: mouse, J774-Dual cells, read-out: J774 cytotox CC50
Experimental: The OTRADI Small Molecule Library of approximately 246,000 diverse compounds (see below for description) was screened using the THP1-Dual based HTS platform described above. All transfer steps in the screen are fully automated, thus reducing variability. Primary screening included a single data point or dose for each molecule. After data normalization was applied for each assay run, “hit” selection was performed on the plates that pass the quality control (QC) criterion. Hits were defined as samples having values above the activity cutoff determined based on noise level of the assay to reduce false positive rates. […] The ratio of ISRE:NFκB activity was also calculated as a selectivity index for prioritizing hit selection. Primary hits underwent secondary screening to determine the 50% effective concentration (EC50) and 50% cytotoxic concentration (CC50) of these agents using an 8-point dose-response curve in the human THP1-Dual cells. Cytotoxicity was measured in the plate using Cell Titer Glo (Promega). Identified candidate compounds were further screened (orthogonal screen) for cross species activity in the validated mouse J774-Dual assay using an 8-point dose-response format to determine EC50 and CC50 values as well as ISRE:NFκB ratios. A general process flow for the experimental design laid out above is depicted at FIG. 12.

Row | SMILES | CC50 ([1]; Human Reporter Cell Line THP1) [µM] | CC50 (J774-Dual cytotoxicity; Mouse Reporter Cell Line J774) [µM] | CC50 ([1]; Human Reporter Cell Line) [µM] | CC50 (J774-Dual cytotoxicity; Mouse Reporter Cell Line) [µM]
1 | COc1ccc(C(=O)Nc2ccc(Cl)c(-c3nc4cc(C)c(C)cc4o3)c2)cc1[N+](=O)[O-] [ND-45] | 12.9 | > 25 |  | 
2 | Cc1ccc(C(=O)Nc2cc(-c3nc4cc(C(C)C)ccc4o3)ccc2C)cc1C [ND-9] | > 25 | > 25 |  | 
3 | CC(C)CC(=O)c1c(C(C)C)nn2ccccc12 [ND-97] | > 25 | > 25 |  | 
4 | Cc1ccc(-c2nc3cc(C(C)C)ccc3o2)cc1[N+](=O)[O-] [ND-57] | > 25 | > 25 |  | 
5 | O=C(c1cccs1)N1CCN(c2ccc(NS(=O)(=O)c3ccc(-c4ccccc4)cc3)cc2)CC1 [NA-69] |  |  | > 10 | > 10
6 | COc1ccc(C(=O)Nc2cc(-c3nc4ccccc4s3)ccc2C)cc1C(F)(F)F [ND-87] | 3.02 | > 25 |  | 
7 | O=C(c1cccs1)N1CCN(Cc2cn(Cc3ccccc3Cl)nn2)CC1 [NA-58] |  |  | > 25 | > 25
8 | CCOc1ccc(C(=O)Nc2cccc(-c3nc4cc(C(C)C)ccc4o3)c2)cc1[N+](=O)[O-] [ND-17] | > 25 | > 25 |  | 
9 | O=C(Nc1ccc(N2CCN(C(=O)c3cccs3)CC2)cc1)c1ccc(Oc2ccccc2)cc1 [NA-26] |  |  | > 25 | > 25
10 | COc1ccc(-c2nc3cc(C(C)C)ccc3o2)cc1NC(=O)c1cccc([N+](=O)[O-])c1C [ND-15] | > 25 | > 25 |  | 
11 | Cc1cc2nc(-c3c[nH]c4ccccc34)oc2cc1C [ND-108] | > 10 | > 10 |  | 
12 | CCOc1ccc(C(=O)Nc2ccc(N3CCN(C(=O)c4cccs4)CC3)cc2)cc1[N+](=O)[O-] [NA-65] |  |  | > 10 | > 10
13 | O=C(Nc1ccc(N2CCN(C(=O)c3cccnc3)CC2)cc1)c1ccc(OCc2ccccc2)cc1 [NA-36] |  |  | > 25 | > 25
14 | Cc1cc(C(=O)Nc2cc(-c3nc4ccccc4s3)ccc2Cl)ccc1[N+](=O)[O-] [ND-51] | 22.1 | > 25 |  | 
15 | O=C(Nc1ccc(N2CCN(C(=O)c3cccs3)CC2)c(Cl)c1)c1cc([N+](=O)[O-])ccc1N1CCOCC1 [NA-66] |  |  | > 10 | > 10
16 | Cc1cc(NC(=O)c2ccc(OCc3ccccc3)cc2)ccc1N1CCN(C(=O)c2cccs2)CC1 [NA-74] |  |  | > 10 | > 10
17 | Cc1ccc(-c2nc3cc(C(C)C)ccc3o2)cc1NC(=S)NC(=O)c1cccc(F)c1 [ND-11] | > 25 | > 25 |  | 
18 | O=C(Nc1ccc(N2CCN(C(=O)c3cccs3)CC2)cc1)c1cccc2ccccc12 [NA-11] |  |  | > 25 | > 25
19 | O=C(Nc1ccc(N2CCN(C(=O)c3ccco3)CC2)cc1)c1ccccc1F [NA-3] |  |  | > 25 | > 25
20 | Cc1cc2nc(-c3ccc(C)c(NC(=O)c4ccc(C(F)(F)F)c([N+](=O)[O-])c4)c3)oc2cc1C [ND-75] | > 25 | > 25 |  | 
21 | O=C(NCCC(=O)N1CCN(C(=O)c2cccs2)CC1)c1ccc(OCc2ccccc2)cc1 [NA-54] |  |  | > 25 | > 25
22 | COc1ccc(C(=O)Nc2nc(-c3cc4ccccc4oc3=O)cs2)cc1[N+](=O)[O-] [ND-29] | > 25 | > 25 |  | 
23 | Cc1ccc(-c2nc3cc(OCCCN4CCCC4)ccc3o2)cc1[N+](=O)[O-] [ND-83] | > 25 | > 25 |  | 
24 | Cc1cc2nc(-c3ccc(C)c(NC(=O)c4cc([N+](=O)[O-])ccc4Cl)c3)oc2cc1C [ND-33] | > 25 | > 25 |  | 
25 | Cc1ccc(C(=O)Nc2nc(C)c(-c3ccccc3)s2)cc1[N+](=O)[O-] [ND-32] | > 25 | > 25 |  | 
26 | O=C(Nc1ccc(N2CCN(C(=O)c3ccc(Cl)cc3)CC2)cc1)c1ccc(OCc2ccccc2)cc1 [NA-45] |  |  | 10.7 | > 25

Row | SMILES | CC50 ([1]; Human Reporter Cell Line THP1) [µM] | CC50 (J774-Dual cytotoxicity; Mouse Reporter Cell Line J774) [µM] | CC50 ([1]; Human Reporter Cell Line) [µM] | CC50 (J774-Dual cytotoxicity; Mouse Reporter Cell Line) [µM]
27 | COc1cc(C(=O)Nc2cc(-c3nc4cc(C(C)C)ccc4o3)ccc2C)cc(OC)c1OC [ND-14] | > 25 | > 25 |  | 
28 | O=C(Nc1ccc(N2CCN(C(=O)c3cccs3)CC2)cc1)c1ccccc1Br [NA-67] |  |  | > 10 | > 10
29 | COc1ccc(S(=O)(=O)Nc2cc(-c3nc4cc(C)c(C)cc4o3)ccc2C)cc1[N+](=O)[O-] [ND-107] | > 10 | > 10 |  | 
30 | Cc1cc2nc(-c3ccc(C)c(Nc4[nH]c(=O)[nH]c(=O)c4[N+](=O)[O-])c3)oc2cc1C [ND-56] | > 25 | > 25 |  | 
31 | O=c1cc(NC[C@H](O)[C@H](O)[C@H](O)CO)[nH]c(=O)[nH]1 [ND-100] | > 25 | > 25 |  | 
32 | COc1ccc(C(=O)Nc2cccc(-c3nc4ccccc4s3)c2C)cc1[N+](=O)[O-] [ND-90] | > 25 | > 25 |  | 
33 | CN(C)CCCOc1ccc(-c2nc3cc(OCCCN4CCCC4)ccc3o2)cc1 [ND-93] | > 25 | > 25 |  | 
34 | O=C(Nc1ccc(N2CCN(C(=O)c3cccc(Cl)c3)CC2)cc1)c1ccc(OCc2ccccc2)cc1 [NA-48] |  |  | > 25 | > 25
35 | CC(=O)N1CCN(c2ccc(NC(=O)c3ccc(OCc4ccccc4)cc3)cc2)CC1 [NA-2] |  |  | > 25 | > 25
36 | O=C(Nc1ccc(N2CCN(C(=O)c3cccs3)CC2)c(Cl)c1)c1ccc2c(c1)OCCO2 [NA-29] |  |  | 65 | 45.8
37 | O=C(Nc1ccc(N2CCN(C(=O)c3ccncc3)CC2)cc1)c1ccc(OCc2ccccc2)cc1 [NA-37] |  |  | > 25 | > 25
38 | Cc1ccc(C(=O)Nc2cc(C(C)C)ccc2O)cc1[N+](=O)[O-] [ND-55] | > 25 | > 25 |  | 
39 | O=C(Cc1cc(Br)cc(Br)c1)Nc1ccc(N2CCN(C(=O)c3cccs3)CC2)cc1 [NA-9] |  |  | > 25 | > 25
40 | O=C(Nc1ccc(N2CCN(C(=O)c3cccs3)CC2)cc1)c1ccc(Br)o1 [NA-8] |  |  | > 25 | > 25
41 | COc1cccc(Cn2cc(CN3CCN(C(=O)c4cccs4)CC3)nn2)c1 [NA-57] |  |  | > 25 | > 25
42 | O=C(Nc1ccc(N2CCN(C(=O)c3cccs3)CC2)c(Cl)c1)c1ccc(OCc2ccccc2)cc1 [NA-73] |  |  | > 10 | > 10
43 | CCOc1ccc(C(=O)Nc2ccc3oc(-c4cccnc4)nc3c2)cc1[N+](=O)[O-] [ND-44] | > 25 | > 25 |  | 
44 | ClCCCOc1ccc(-c2nc3ccc(OCCCCl)cc3o2)cc1 [ND-73] | > 25 | > 25 |  | 
45 | Cc1ccc(-c2nc3cc(O)ccc3o2)cc1[N+](=O)[O-] [ND-85] | > 25 | > 25 |  | 
46 | O=C(c1ccco1)N1CCN(c2ccccc2)CC1 [NA-5] |  |  | > 25 | > 25
47 | CCOC(=O)C1=CCCC[C@H]1S(=O)(=O)Nc1ccc(F)cc1Cl [ND-72] | > 25 | > 25 |  | 
48 | CC1=NN(c2ccccc2)C(=O)C1 [ND-77] | > 25 | > 25 |  | 
49 | O=C(Nc1ccc(N2CCN(C(=O)c3cccs3)CC2)cc1)c1cccc(Oc2ccccc2)c1 [NA-68] |  |  | > 10 | > 10
50 | O=C(c1cccs1)N1CCN(Cc2cn(Cc3ccc(Cl)cc3)nn2)CC1 [NA-56] |  |  | > 25 | > 25
51 | O=C(Nc1ccc(N2CCN(C(=O)c3cccs3)CC2)cc1)c1cncc(-c2ccccc2)c1 [NA-40] |  |  | > 25 | > 25
52 | Cc1ccc(Cn2cc(CN3CCN(C(=O)c4cccs4)CC3)nn2)cc1 [NA-55] |  |  | > 25 | > 25
